PMC6427912 (Journal of medicinal chemistry, 2019)
Like-named read-outs stand apart in the source and are kept apart here.

Key:
B. subtilis [1] = assay: B. subtilis growth inhibition assay; format: cell-based, Bacillus subtilis
B. anthracis Sterne = format: cell-based, Bacillus anthracis; conditions: B. anthracis Sterne growth inhibition
S. aureus = S. aureus growth inhibition assay; format: cell-based, Staphylococcus aureus; conditions: S. aureus growth inhibition
Mycobacterium smegmatis = assay: M. smegmatis growth inhibition assay; format: cell-based
HEK293 cells = assay: HEK293 cell growth inhibition assay; format: cell-based, human; conditions: for HEK 293: HEK293 cell growth inhibition ED50, 24 hr incubation; for HEK293 toxicity (ED50): 96 hours incubation
[2] = target: EcOPPS (E. coli octaprenyl diphosphate synthase) (Escherichia coli, UniProt P0AD57); assay: OPPS enzyme inhibition assay; format: biochemical; conditions: IC50 against EcOPPS
[3] = HEK293 cell growth inhibition assay; format: cell-based, human; conditions: human, HEK293 cells
B. subtilis [4] = assay: B. subtilis serum binding assay; format: cell-based, Bacillus subtilis; conditions: 4% or 10% fetal bovine serum
[5] = target: SaHepPPS (S. aureus heptaprenyl diphosphate synthase) (Staphylococcus aureus, UniProt Q2FYG6); assay: HepPPS enzyme inhibition assay; format: biochemical; conditions: IC50 against SaHepPPS

EcOPPS (E. coli octaprenyl diphosphate synthase), sequence (P0AD57 whole entry): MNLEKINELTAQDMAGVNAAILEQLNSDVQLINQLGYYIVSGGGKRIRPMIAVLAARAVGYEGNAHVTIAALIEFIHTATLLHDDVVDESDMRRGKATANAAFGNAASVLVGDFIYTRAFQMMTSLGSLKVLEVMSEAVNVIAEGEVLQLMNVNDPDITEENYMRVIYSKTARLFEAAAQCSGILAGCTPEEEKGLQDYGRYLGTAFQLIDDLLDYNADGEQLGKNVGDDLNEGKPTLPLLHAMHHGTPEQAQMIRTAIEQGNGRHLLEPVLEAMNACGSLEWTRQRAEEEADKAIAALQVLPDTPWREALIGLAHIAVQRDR

Row | Compound | Bs ED50 (B. subtilis [1]; 12 hours) [µg/mL] | Bs ED50 (B. subtilis [1]; value in parentheses) [µM] | Ba ED50 (B. anthracis Sterne) [µg/mL] | Ba ED50 (B. anthracis Sterne; value in parentheses) [µM] | Sa ED50 (S. aureus) [µg/mL] | Sa ED50 (S. aureus; value in parentheses) [µM] | Ms ED50 (Mycobacterium smegmatis; 48 hours) [µg/mL] | Ms ED50 (Mycobacterium smegmatis; value in parentheses) [µM] | HEK 293 (HEK293 cells) [µg/mL] | HEK 293 (HEK293 cells; value in parentheses) [µM] | IC50 [2] [µM] | IC50 [3] [µM] | HEK293 toxicity (ED50) (HEK293 cells) [µM] | effect of serum on B. subtilis growth inhibition (B. subtilis [4]) | IC50 [5] [µM]
1 | (((6-(4,8-Dimethylnonyl)pyridin-2-yl)amino)methylene)bis(phosphonic acid) [Compound 89] | 26 | 60 | 3.0 | 6.9 | 32 | 73 | 93 | 210 | 480 | 1100 | – | – | – | – | –
2 | CC(C)CCCC(C)CCSc1ccc[n+](CC(P(=O)([O-])O)P(=O)(O)O)c1 (stereo not drawn) [Compound 79, Hydrogen(2-(3-((3,7-dimethyloctyl)thio)pyridin-1-ium-1-yl)-1-phosphonoethyl) phosphonate] | 2.8 | 6.4 | 0.4 | 0.9 | 18 | 41 | 6.2 | 14 | 224 | 510 | – | – | – | – | –
3 | CCCCCCCCCCOc1ccc[n+](CC(P(=O)([O-])O)P(=O)(O)O)c1 (stereo not drawn) [Compound 6] | – | – | – | – | – | – | – | – | – | – | ~0.006 | – | – | – | –
4 | CC(C)CCCC(C)CCn1cc[n+](CC(P(=O)([O-])O)P(=O)(O)O)c1 (stereo not drawn) [Compound 82, Hydrogen(2-(1-(3,7-dimethyloctyl)-1H-imidazol-3-ium-3-yl)-1-phosphonoethyl) phosphonate] | 4.6 | 12 | 4.3 | 11 | 34 | 86 | 15 | 38 | 170 | 420 | – | – | – | – | –
5 | CC(C)CCCC(C)CCOc1cc[n+](CC(P(=O)([O-])O)P(=O)(O)O)cc1 (stereo not drawn) [Compound 84, Hydrogen (2-(4-((3,7-dimethyloctyl)oxy)pyridin-1-ium-1-yl)-1-phosphonoethyl) phosphonate] | – | 14 | 2.5 | 5.9 | – | 66 | 150 | 350 | 420 | 1000 | – | ~1000 | – | – | –
6 | CC(C)CCCC(C)CCCc1cc[n+](CC(P(=O)([O-])O)P(=O)(O)O)cc1 (stereo not drawn) [Compound 80, Hydrogen(2-(4-(4,8-dimethylnonyl)pyridin-1-ium-1-yl)-1-phosphonoethyl) phosphonate] | 3.1 | 7.4 | 2.2 | 5.2 | 21 | 50 | 7.2 | 17 | 295 | 700 | – | ~1000 | – | – | –
7 | CC(C)CCCC(C)CCSc1cc[n+](CC(P(=O)([O-])O)P(=O)(O)O)cc1 (stereo not drawn) [Compound 85, Hydrogen(2-(4-((3,7-dimethyloctyl)thio)pyridin-1-ium-1-yl)-1-phosphonoethyl) phosphonate] | 7.0 | 16 | 1.1 | 2.5 | 31 | 71 | 70 | 160 | 440 | 1000 | – | – | – | – | –
8 | CC(C)CCCC(C)CCOc1ccnc(NC(P(=O)(O)O)P(=O)(O)O)c1 (stereo not drawn) [Compound 95, (((4-((3,7-Dimethyloctyl)oxy)pyridin-2-yl)amino)methylene)bisphosphonic acid] | 110 | 230 | 2.5 | 5.2 | 69 | 140 | 79 | 160 | 630 | 1300 | – | – | – | – | –
9 | CC(C)CCCC(C)CCOc1cc(NCC(P(=O)(O)O)P(=O)(O)O)ccn1 (stereo not drawn) [Compound 87, (2-((2-((3,7-Dimethyloctyl)oxy)pyridin-4-yl)amino)ethane-1,1-diyl)bis(phosphonic acid)] | 21 | 48 | 3.2 | 7.3 | 35 | 80 | 75 | 170 | 530 | 1200 | – | – | – | – | –
10 | CC(C)CCCC(C)CCCc1ccc[n+](CC(P(=O)([O-])O)P(=O)(O)O)c1 (stereo not drawn) [Compound 77, Hydrogen(2-(3-(4,8-dimethylnonyl)pyridin-1-ium-1-yl)-1-phosphonoethyl) phosphonate] | 2.2 | 5.2 | 2.1 | 5.0 | 13 | 31 | 5.9 | 14 | 194 | – | – | – | 140 | no effect | –
11 | CCCCCCCCCCCc1ccc[n+](CC(P(=O)([O-])O)P(=O)(O)O)c1 (stereo not drawn) [Compound 76, Hydrogen (1-phosphono-2-(3-undecylpyridin-1-ium-1-yl)ethyl)phosphonate] | 2.1 | 4.8 | 0.6 | 1.4 | 13 | 30 | 6.1 | 14 | 96 | – | – | – | 7.3 | no effect | –
12 | O=P(O)(O)C(O)(Cc1cccc(-c2cccc3c2oc2ccccc23)c1)P(=O)(O)O [Compound 69] | – | – | – | – | – | 19 | – | – | – | – | ~330 | – | – | – | 1 to 2
13 | CCCCCCCCCCCCCc1ccc[n+](CC(P(=O)([O-])O)P(=O)(O)O)c1 (stereo not drawn) [Compound 83, Hydrogen (1-phosphono-2-(3-tridecylpyridin-1-ium-1-yl)ethyl)phosphonate] | 5.5 | 12 | 2.2 | 4.9 | 30 | 67 | 7.2 | 16 | 22 | 48 | – | – | – | – | –
14 | CC(C)CCCC(C)CCOc1ccnc(NCC(P(=O)(O)O)P(=O)(O)O)c1 (stereo not drawn) [Compound 96, (2-((4-((3,7-Dimethyloctyl)oxy)pyridin-2-yl)amino)ethane-1,1-diyl)bis(phosphonic acid)] | 180 | 420 | 11 | 26 | 52 | 120 | 100 | 240 | – | – | – | – | – | – | –
15 | CC(C)CCCC(C)CCCn1cc[n+](CC(P(=O)([O-])O)P(=O)(O)O)c1 (stereo not drawn) [Compound 75, Hydrogen(2-(1-(4,8-dimethylnonyl)-1H-imidazol-3-ium-3-yl)-1-phosphonoethyl) phosphonate] | 1.7 | 4.1 | 1.8 | 4.4 | 26 | 63 | 1.4 | 3.4 | 181 | 440 | – | – | – | – | –
16 | CC(C)CCCC(C)CCOc1cccc(NCC(P(=O)(O)O)P(=O)(O)O)n1 (stereo not drawn) [Compound 92, (2-((6-((3,7-Dimethyloctyl)oxy)pyridin-2-yl)amino)ethane-1,1-diyl)bis(phosphonic acid)] | 75 | 170 | 4.2 | 9.6 | 60 | 140 | 200 | 460 | – | – | – | – | – | – | –
17 | CC(C)CCCC(C)CCNc1ccc[n+](CC(P(=O)([O-])O)P(=O)(O)O)c1 (stereo not drawn) [Compound 78, Hydrogen(2-(3-((3,7-dimethyloctyl)amino)pyridin-1-ium-1-yl)-1-phosphonoethyl) phosphonate] | 2.4 | 5.7 | 0.8 | 1.9 | 13 | 31 | 5.5 | 13 | 186 | 440 | – | – | – | – | –
18 | O=P(O)(O)C(O)(Cn1ccnc1)P(=O)(O)O [Compound 24, zoledronate] | – | – | – | – | – | – | – | – | – | – | < 1 | – | – | – | –
